Assay results from patent US20110039762A1, “TARGETED ANTIMICROBIAL MOIETIES” (C3 JIAN, INC., priority 2009, published 2011).
“Also recorded” adds a separate entry of the source.

Experiments:
S. epidermidis = assay: Kill or inhibit growth/proliferation; morphology, biofilm and growth disruption (Tables 5, 6); format: cell-based, Staphylococcus epidermidis; design: key: A: Peptide aggregates; B: Less hyphal formation; Clumps; Diffuse clumps and small polyps; F: Diffuse growth; H: Thin; I: Growth inhibition; Microcolony formation; Rippled; Small polyps; Thick; W: Halo formation on top, microlonies on bottom; further: test concentration or dose not given here
C. jeikeium = assay: as above; format: cell-based, Corynebacterium jeikeium; design: key: A: Peptide aggregates; B: Less hyphal formation; Clumps; Diffuse clumps and small polyps; F: Diffuse growth; H: Thin; I: Growth inhibition; Microcolony formation; Rippled; Small polyps; Thick; W: Halo formation on top, microlonies on bottom
[1] = test system: microorganisms (e.g., bacteria, yeasts, fungi); assay: Targeting peptide binding to target microorganisms (Table 3); settings: preferably 1x PBS
microorganisms = assay: Peptides having multiple activities (targeting/binding, antimicrobial, growth or phenotype altering)
Text: In certain embodiments, peptides described herein can have multiple activities. Thus for example, a peptide can have both binding/targeting activity and antimicrobial activity. Such peptides can be used, e.g., in a chimeric construct, for any or all of these properties. Thus, for example, a peptide designated “B” in Table 8 can be used as a targeting peptide. If it is also designated G or M it can also be used for antimicrobial activity.

MRSA = assay: Kill or inhibit growth/proliferation; morphology, biofilm and growth disruption (Tables 5, 6); format: cell-based, Methicillin-resistant Staphylococcus aureus; design: key: A: Peptide aggregates; B: Less hyphal formation; Clumps; Diffuse clumps and small polyps; F: Diffuse growth; H: Thin; I: Growth inhibition; Microcolony formation; Rippled; Small polyps; Thick; W: Halo formation on top, microlonies on bottom; further: test concentration or dose not given here
S. pneumoniae = assay: as above; format: cell-based, Streptococcus pneumoniae; design: key: A: Peptide aggregates; B: Less hyphal formation; Clumps; Diffuse clumps and small polyps; F: Diffuse growth; H: Thin; I: Growth inhibition; Microcolony formation; Rippled; Small polyps; Thick; W: Halo formation on top, microlonies on bottom
C. jejuni = assay: as above; format: cell-based, Campylobacter jejuni; design: key: A: Peptide aggregates; B: Less hyphal formation; Clumps; Diffuse clumps and small polyps; F: Diffuse growth; H: Thin; I: Growth inhibition; Microcolony formation; Rippled; Small polyps; Thick; W: Halo formation on top, microlonies on bottom; further: test concentration or dose not given here
M. luteus = assay: as above; format: cell-based, Micrococcus luteus; design: key: A: Peptide aggregates; B: Less hyphal formation; Clumps; Diffuse clumps and small polyps; F: Diffuse growth; H: Thin; I: Growth inhibition; Microcolony formation; Rippled; Small polyps; Thick; W: Halo formation on top, microlonies on bottom
[2] = microorganism the targeting peptide binds, binding in aqueous buffers varied by peptide solubility
[3] = microorganism(s) the targeting peptide binds, binding in aqueous buffers depending on peptide solubility
Wherever Organism, effect is given: test concentration or dose not given here.

PF-046: peptide having multiple activities (chain 1 LDFYLTKHLTLML; chain 2 LDFYLTKHLTLML; Peptide with targeting and/or antimicrobial activity)
Organism, effect (S. epidermidis): S. epidermidis (C) | Organism, effect (C. jeikeium): C. jeikeium (R) | Target(s) [1, 2]: E. coli; also recorded: E. faecalis; also recorded: C. jeikeium | Activities (microorganisms): G B | Organism, effect (MRSA): MRSA (R)

PF-133: peptide having multiple activities (GDPTAGQKPVECP; Peptide with targeting and/or antimicrobial activity)
Organism, effect (C. jeikeium): C. jeikeium (R) | Target(s) [1, 3]: S. epidermidis; also recorded: C. jeikeium; also recorded: C. jejuni; also recorded: M. smegmatis | Activities (microorganisms): G B

PF-186: peptide having multiple activities (DADKNLSLERDRFAWRVAAP; Peptide with targeting and/or antimicrobial activity)
Organism, effect (S. epidermidis): S. epidermidis (C) | Organism, effect (C. jeikeium): C. jeikeium (A) | Target(s) [1, 3]: S. epidermidis and M. luteus and E. coli and P. aeruginosa and MRSA and C. jeikeium | Activities (microorganisms): G B

PF-188: peptide having multiple activities (ARTFAGRLGTRYFGGLMRSTKA; Peptide with targeting and/or antimicrobial activity)
Organism, effect (C. jeikeium): C. jeikeium (H) | Target(s) [1, 3]: S. epidermidis and M. luteus and E. coli and C. albicans and MRSA and E. faecalis | Activities (microorganisms): G B

PF-135: peptide having multiple activities (PPARPARIPQTPTLHGASLFRQRS; Peptide with targeting and/or antimicrobial activity)
Organism, effect (C. jeikeium): C. jeikeium (R) | Target(s) [1, 3]: S. epidermidis and M. luteus and E. coli and P. aeruginosa and MRSA and C. jeikeium and M. smegmatis | Activities (microorganisms): G B

PF-011: peptide having multiple activities (chain 1 MFCYYKQHKGDNFSIEEVKNIIADNEMKVN; chain 2 MFCYYKQHKGDNFSIEEVKNIIADNEMKVN; Peptide with targeting and/or antimicrobial activity)
Organism, effect (C. jeikeium): C. jeikeium (C) | Target(s) [1, 2]: M. luteus; also recorded: E. coli; also recorded: P. aeruginosa; also recorded: S. pneumoniae; also recorded: C. jeikeium | Activities (microorganisms): G B | Organism, effect (MRSA): MRSA (R)

ALDCSEQSVILWYETILDKIVGVIK [PF-028]
Organism, effect (S. epidermidis): S. epidermidis (M) | Organism, effect (C. jeikeium): C. jeikeium (M) | Target(s) [1, 2]: S. epidermidis and M. luteus and MRSA | Activities (microorganisms): G B | Organism, effect (MRSA): MRSA (R)

PF-173: peptide having multiple activities (AGRTAIVQGGG; Peptide with targeting and/or antimicrobial activity)
Organism, effect (S. epidermidis): S. epidermidis (A) | Organism, effect (C. jeikeium): C. jeikeium (D) | Target(s) [1, 3]: S. epidermidis; also recorded: M. luteus; also recorded: P. mirabilis; also recorded: E. coli; also recorded: P. aeruginosa; also recorded: C. albicans; also recorded: C. jeikeium; also recorded: C. jejuni | Activities (microorganisms): G B

PF-032 (RIVVPAHQSNMASTPNLSITP; Peptide with targeting and/or antimicrobial activity)
Organism, effect (S. epidermidis): S. epidermidis (S) | Organism, effect (C. jeikeium): C. jeikeium (C)

PF-208: peptide having multiple activities (DAYHCHLVRSPDAHDLSMRIGFV; Peptide with targeting and/or antimicrobial activity)
Organism, effect (S. epidermidis): S. epidermidis (D) | Organism, effect (C. jeikeium): C. jeikeium (A) | Target(s) [1, 3]: S. epidermidis and C. albicans and MRSA and S. pneumoniae and E. faecalis and C. jeikeium and C. jejuni | Activities (microorganisms): G B

PF-129: peptide having multiple activities (MKLLARDPWVCAWNDIW; Peptide with targeting and/or antimicrobial activity)
Organism, effect (S. epidermidis): S. epidermidis (M) | Organism, effect (C. jeikeium): C. jeikeium (R) | Target(s) [1, 3]: S. epidermidis and MRSA and E. faecalis and C. jeikeium and C. jejuni | Activities (microorganisms): G B

PF-562: peptide having multiple activities (chain 1 TPEQWLERSTVVVTGLLNRK; chain 2 TPEQWLERSTVVVTGLLNRK; Peptide with targeting and/or antimicrobial activity)
Organism, effect (S. pneumoniae): S. pneumoniae (D) | Organism, effect (S. epidermidis): S. epidermidis (A) | Organism, effect (C. jejuni): C. jejuni (R) | Organism, effect (M. luteus): M. luteus (R) | Activities (microorganisms): G B | Organism, effect (MRSA): MRSA (M)

PF-164: peptide having multiple activities (EEVSRALAGIGLGLGCRIG; Peptide with targeting and/or antimicrobial activity)
Organism, effect (C. jeikeium): C. jeikeium (R) | Target(s) [1, 3]: S. epidermidis; also recorded: M. luteus; also recorded: E. coli; also recorded: C. jeikeium | Activities (microorganisms): G B

PF-065: peptide having multiple activities (LEKNTRDNYFIHAIDRIYINTSKGLFPESELVAWG; Peptide with targeting and/or antimicrobial activity)
Organism, effect (S. epidermidis): S. epidermidis (D) | Organism, effect (C. jeikeium): C. jeikeium (A) | Target(s) [1, 2]: M. luteus and E. coli and P. aeruginosa and C. albicans and MRSA and S. pneumoniae and C. jeikeium and C. jejuni | Activities (microorganisms): G B | Organism, effect (MRSA): MRSA (R)

PF-203: peptide having multiple activities (SWKCHHLAI; Peptide with targeting and/or antimicrobial activity)
Organism, effect (S. epidermidis): S. epidermidis (A) | Organism, effect (C. jeikeium): C. jeikeium (R) | Activities (microorganisms): G B

PF-190: peptide having multiple activities (HFILRKPLLFMIHSLKTGPLDRF; Peptide with targeting and/or antimicrobial activity)
Organism, effect (S. epidermidis): S. epidermidis (C) | Organism, effect (C. jeikeium): C. jeikeium (R) | Activities (microorganisms): G B

PF-196: peptide having multiple activities (TTARYIRRQCHTSITPLSQG; Peptide with targeting and/or antimicrobial activity)
Organism, effect (S. epidermidis): S. epidermidis (C) | Organism, effect (C. jeikeium): C. jeikeium (R) | Activities (microorganisms): G B

PF-099: peptide having multiple activities (EIIAYLEGRFANA; Peptide with targeting and/or antimicrobial activity)
Organism, effect (S. epidermidis): S. epidermidis (D) | Organism, effect (C. jeikeium): C. jeikeium (C) | Target(s) [1, 3]: S. epidermidis; also recorded: M. luteus; also recorded: E. coli; also recorded: C. jeikeium | Activities (microorganisms): G B

PF-153: peptide having multiple activities (GILARADCSQIA; Peptide with targeting and/or antimicrobial activity)
Organism, effect (S. epidermidis): S. epidermidis (M) | Organism, effect (C. jeikeium): C. jeikeium (C) | Target(s) [1, 3]: M. luteus and P. mirabilis and E. coli and MRSA | Activities (microorganisms): G B
